From patent US20110160123A1, “TARGETING THE EFFLUX SYSTEMS OF MYCOBACTERIUM TUBERCULOSIS” (THE UAB RESEARCH FOUNDATION, priority 2008, published 2011)
Values after ≈ are worked out from the molar mass of the structure shown. Read-outs that look alike come from different tables or passages of the source.

How the values were obtained:
[1] = tested on: M. smegmatis ΔmspA mutant MN01; conditions: ΔmspA mutant compared with wild-type M. smegmatis; cited from earlier work
wild-type M. bovis BCG = experiment: microbe, parasite or virus in culture; assay type: cell-based; conditions: for MIC: Mycobacterium tuberculosis variant bovis BCG, BCG, read-out: MIC WT
M. smegmatis WT (SMR5) = experiment: microbe, parasite or virus in culture; assay type: cell-based; conditions: for MIC: Mycolicibacterium smegmatis
E. coli = conditions: cited from earlier work
[2] = tested on: M. smegmatis ms3747 mutant ML77; assay type: cell-based; conditions: ms3747 mutant versus wt M. smegmatis
M. tuberculosis = experiment: Minimal inhibitory concentration of copper on Hartmans de Bond medium; assay type: cell-based
[3] = tested on: M. smegmatis SMR5 with rv0194 expression vector pML655; assay type: cell-based
[4] = tested on: M. smegmatis SMR5 wt (pMS2) and rv0194-expressing strain (pML655); assay type: cell-based

| Structure (SMILES) | MIC (wild-type M. bovis BCG) | MIC (M. smegmatis WT (SMR5); read-out: MIC WT) | also measured |
| --- | --- | --- | --- |
| CC1(C)S[C@@H]2[C@H](NC(=O)[C@H](N)c3ccccc3)C(=O)N2[C@H]1C(=O)O [Ampicillin] | 62.5 µg/mL (≈ 179 µM) | 125 µg/mL (≈ 358 µM) | increased resistance toward ampicillin [1]: 16 fold |
| O=C(N[C@H](CO)[C@H](O)c1ccc([N+](=O)[O-])cc1)C(Cl)Cl [Chloramphenicol] | 8 µg/mL (≈ 24.8 µM) | 32 µg/mL (≈ 99 µM) |  |
| CC[C@H]1OC(=O)[C@H](C)[C@@H](O[C@H]2C[C@@](C)(OC)[C@@H](O)[C@H](C)O2)[C@H](C)[C@@H](O[C@@H]2O[C@H](C)C[C@H](N(C)C)[C@H]2O)[C@](C)(O)C[C@@H](C)C(=O)[C@H](C)[C@@H](O)[C@]1(C)O [Erythromycin] |  | 2.5 µg/mL (≈ 3.41 µM) |  |
| CO[C@@H]1[C@@H](OC(N)=O)[C@@H](O)[C@H](Oc2ccc3c(O)c(NC(=O)c4ccc(O)c(CC=C(C)C)c4)c(=O)oc3c2C)OC1(C)C [Novobiocin] |  | 4 µg/mL (≈ 6.53 µM) |  |
| [H]/N=C(/N)N[C@H]1[C@H](O)[C@@H](O)[C@H](O[C@@H]2O[C@@H](C)[C@](O)(C=O)[C@H]2O[C@@H]2O[C@@H](CO)[C@H](O)[C@@H](O)[C@@H]2NC)[C@@H](N/C(N)=N\[H])[C@@H]1O [Streptomycin] | 0.5 µg/mL (≈ 0.86 µM) |  |  |
| CN(C)[C@@H]1C(=O)C(C(N)=O)=C(O)[C@@]2(O)C(=O)C3=C(O)c4c(O)cccc4[C@@](C)(O)[C@H]3C[C@@H]12 [Tetracyclin] |  |  | MIC WT (wild-type M. bovis BCG): 2 µg/mL (≈ 4.5 µM); MIC WT (M. smegmatis WT (SMR5)): 0.3 µg/mL (≈ 0.675 µM) |
| CN[C@H](CC(C)C)C(=O)N[C@H]1C(=O)N[C@@H](CC(N)=O)C(=O)N[C@H]2C(=O)N[C@H]3C(=O)N[C@H](C(=O)N[C@H](C(=O)O)c4cc(O)cc(O)c4-c4cc3ccc4O)[C@H](O)c3ccc(c(Cl)c3)Oc3cc2cc(c3O[C@@H]2O[C@H](CO)[C@@H](O)[C@H](O)[C@H]2O[C@H]2C[C@](C)(N)[C@H](O)[C@H](C)O2)Oc2ccc(cc2Cl)[C@H]1O [Vancomycin] | 5 µg/mL (≈ 3.45 µM) | 1.25 µg/mL (≈ 0.863 µM) |  |
| [Cu] [copper] |  |  | minimal inhibitory concentration of copper (E. coli): ≈ 3 mM; copper concentration affecting growth, mutant relative to wt [2]: four-fold lower; minimal inhibitory concentration of copper (M. tuberculosis): less than 24 μM |
| CC[n+]1c(-c2ccccc2)c2cc(N)ccc2c2ccc(N)cc21 [ethidium bromide] |  |  | MIC (M. smegmatis WT (SMR5); read-out: MIC of ethidium bromide): 1.25 µg/mL |
| COC(=O)[C@H]1[C@H]2C[C@@H]3c4[nH]c5cc(OC)ccc5c4CCN3C[C@H]2C[C@@H](OC(=O)c2cc(OC)c(OC)c(OC)c2)[C@@H]1OC [reserpine] |  |  | accumulation of ethidium bromide after addition of reserpine [3]: quickly reached levels observed for wt M. smegmatis; growth with reserpine in the presence of ethidium bromide [4]: completely inhibited growth of both strains |
